We go through one compound from patent US6589762B1, “Calcafluor screen for chitin biosynthesis inhibitors” (priority 1993, dated 2003).

The structures appear in SMILES notation.

For assay [1], the target named is Chs1 (Saccharomyces cerevisiae, UniProt P08004). The following applies: Cabib, Antimicrob. Agents Chemother. 35: 170-173 (1991); cited from earlier work.
In assay [2] the test system is selected phytopathogenic fungi (Pseudocercosporella herpotrichoides, Rhizoctonia solani, Fusarium oxysporum). In words: In vitro fungicide discovery screen (growth in nutrient agar). The class given is cell-based. The following applies: 25 μg/ml. Here is the method: Standard in vitro and in vivo fungicide discovery screens are employed as tertiary tests to prioritize actives from the calcofluor rescue screen and the secondary screens. […] These include fungi causing wheat eyespot (Pseudocercosporella herpotrichoides), rice sheath blight (Rhizoctonia solani) and damping off (Fusarium oxysporum); all synthesize chitin-containing cell walls. High potency fungicides are active against these species in the 10 ppm range (10 μg/ml), while nikkomycin Z can be detected at ˜70 μg/ml in the calcofluor rescue assay if 30 μl volumes are tested in welled plates.

In assay [3] the target is T1, Chs3 (Saccharomyces cerevisiae, UniProt P29465).
T1 construct: To assay Chs3 activity, membranes from cells lacking Chs1 and, preferably, Chs2 are prepared; endogenous in cells; host or cells: S. cerevisiae strains ECY36-3C, JW17-11/1A/FOA or SSY640-10A (crude membrane fraction)
In words: In vitro chitin synthase enzyme assay (incorporation of UDP-14C-N-acetylglucosamine). The class given is biochemical. Here is the method: In Vitro Secondary Screens. These enzyme assays detect inhibition of individual chitin synthase isozymes Chs1, Chs2, and Chs3 by monitoring the incorporation of radioactive chitin precursor uridine diphospho-N-acetyl glucosamine into acid precipitable counts (i.e., chitin).
To assay Chs3 activity, membranes from cells lacking Chs1 and, preferably, Chs2 are prepared by a modification of the method of Orlean, P. cited above. Strain ECY36-3C, JW17-11/1A/FOA or SSY640-10A are inoculated into YEPD, and the culture is shaken at 30° C. Cells are harvested while still growing exponentially, e.g., at O.D.600 of ˜0.4 as measured in a Guilford Response™ spectrophotometer, washed once in 50 mM Tris-HCl, pH 7.5, containing 0.01 mM EDTA and 1 mM DTT (1,4-dithiothreitol), and resuspended in about 3 volumes of this buffer. Glass beads of about 200 to 300 micron diameter are added to just below the meniscus of the suspension, and cells are shaken by vortexing or in a Bead-Beater™ until lysis occurs, which is monitored microscopically. During this procedure, the cell suspension is kept below 10° C. by cooling in ice. The extract is collected, the glass beads are washed with the same buffer, and the wash is added to the extract. The volume is adjusted to about 20 original volumes with the same buffer.
The cell walls and debris are removed by a 10 minute centrifugation at about 3000×g. The samples are centriuged at 100,000×g for 40 minutes at 4° C. The membrane pellets are resuspended in about one original volume 50 mM Tris-HCl, pH 7.5 containing 0.01 mM EDTA which may contain 33% glycerol, and subjected to Dounce homogenization.
Ten μl of membranes are incubated with shaking in the presence of putative inhibitors in a standard 50 μl assay mixture containing 1 mM uridine diphospho-(^14C)-N-acetyl-glucosamine (400,000 cpm/μmole), 40 mM N-acetylglucosamine, 50 mM Tris-HCl, pH 7.5, and 5 mM MgCl2 at 25° C. The reaction is stopped after 90 minutes by addition of 10% trichloroacetic acid, and the amount of product quantified by filtration and scintillation counting.

Assay [4] concerns A.T.C.C. strain S288c. Description: Comparison growth inhibition screen with strain S288c. The class given is cell-based, Saccharomyces cerevisiae. As to conditions: same conditions at the same levels as Table III.

T1 sequence (P34226 1-693): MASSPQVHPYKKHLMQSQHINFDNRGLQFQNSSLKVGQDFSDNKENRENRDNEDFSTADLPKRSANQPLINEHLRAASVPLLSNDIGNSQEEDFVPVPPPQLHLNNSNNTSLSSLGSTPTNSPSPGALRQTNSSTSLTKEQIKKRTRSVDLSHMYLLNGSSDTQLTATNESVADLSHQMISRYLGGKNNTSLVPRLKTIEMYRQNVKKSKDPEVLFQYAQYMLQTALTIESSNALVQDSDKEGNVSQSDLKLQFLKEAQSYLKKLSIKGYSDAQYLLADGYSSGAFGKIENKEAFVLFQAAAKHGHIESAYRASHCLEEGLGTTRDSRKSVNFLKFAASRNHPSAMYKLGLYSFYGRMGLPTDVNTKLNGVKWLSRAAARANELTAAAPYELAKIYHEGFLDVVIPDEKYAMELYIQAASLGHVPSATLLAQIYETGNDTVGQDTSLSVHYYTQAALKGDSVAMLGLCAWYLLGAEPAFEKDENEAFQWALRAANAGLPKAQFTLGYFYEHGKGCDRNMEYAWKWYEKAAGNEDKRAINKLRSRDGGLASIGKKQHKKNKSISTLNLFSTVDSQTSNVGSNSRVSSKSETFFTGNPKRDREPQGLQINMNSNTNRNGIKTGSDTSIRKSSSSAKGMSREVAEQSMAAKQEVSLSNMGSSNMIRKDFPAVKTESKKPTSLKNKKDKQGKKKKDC
T1 sequence (P29465 whole entry): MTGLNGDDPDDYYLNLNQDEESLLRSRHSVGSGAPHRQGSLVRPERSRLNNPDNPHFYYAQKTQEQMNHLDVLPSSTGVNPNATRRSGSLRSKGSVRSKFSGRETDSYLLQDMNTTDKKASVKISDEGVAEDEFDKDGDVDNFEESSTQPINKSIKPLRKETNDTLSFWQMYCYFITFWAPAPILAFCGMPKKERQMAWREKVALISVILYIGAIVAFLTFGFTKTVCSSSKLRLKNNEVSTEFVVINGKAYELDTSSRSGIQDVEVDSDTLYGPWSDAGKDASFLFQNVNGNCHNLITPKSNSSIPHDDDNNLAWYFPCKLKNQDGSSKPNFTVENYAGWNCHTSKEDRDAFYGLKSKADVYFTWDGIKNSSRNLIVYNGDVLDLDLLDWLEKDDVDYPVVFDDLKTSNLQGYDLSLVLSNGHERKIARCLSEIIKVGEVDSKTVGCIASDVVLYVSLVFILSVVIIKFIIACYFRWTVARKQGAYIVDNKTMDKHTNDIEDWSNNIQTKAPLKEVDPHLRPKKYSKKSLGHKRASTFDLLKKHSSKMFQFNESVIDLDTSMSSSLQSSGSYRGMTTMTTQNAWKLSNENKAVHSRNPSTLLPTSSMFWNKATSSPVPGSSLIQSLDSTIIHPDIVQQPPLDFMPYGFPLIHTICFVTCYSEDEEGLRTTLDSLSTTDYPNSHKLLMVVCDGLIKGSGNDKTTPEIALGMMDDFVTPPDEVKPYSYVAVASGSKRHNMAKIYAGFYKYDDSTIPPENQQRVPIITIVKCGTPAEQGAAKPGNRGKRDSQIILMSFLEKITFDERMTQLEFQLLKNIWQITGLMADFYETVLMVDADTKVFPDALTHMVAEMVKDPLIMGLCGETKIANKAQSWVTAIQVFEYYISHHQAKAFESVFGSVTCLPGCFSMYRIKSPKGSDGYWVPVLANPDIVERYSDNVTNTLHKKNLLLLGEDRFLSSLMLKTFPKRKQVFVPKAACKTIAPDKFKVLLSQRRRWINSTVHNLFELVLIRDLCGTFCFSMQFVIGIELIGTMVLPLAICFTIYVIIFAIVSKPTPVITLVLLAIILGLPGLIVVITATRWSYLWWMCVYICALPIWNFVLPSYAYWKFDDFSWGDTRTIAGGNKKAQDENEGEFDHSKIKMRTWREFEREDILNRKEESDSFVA
Chs1, sequence (P08004 whole entry): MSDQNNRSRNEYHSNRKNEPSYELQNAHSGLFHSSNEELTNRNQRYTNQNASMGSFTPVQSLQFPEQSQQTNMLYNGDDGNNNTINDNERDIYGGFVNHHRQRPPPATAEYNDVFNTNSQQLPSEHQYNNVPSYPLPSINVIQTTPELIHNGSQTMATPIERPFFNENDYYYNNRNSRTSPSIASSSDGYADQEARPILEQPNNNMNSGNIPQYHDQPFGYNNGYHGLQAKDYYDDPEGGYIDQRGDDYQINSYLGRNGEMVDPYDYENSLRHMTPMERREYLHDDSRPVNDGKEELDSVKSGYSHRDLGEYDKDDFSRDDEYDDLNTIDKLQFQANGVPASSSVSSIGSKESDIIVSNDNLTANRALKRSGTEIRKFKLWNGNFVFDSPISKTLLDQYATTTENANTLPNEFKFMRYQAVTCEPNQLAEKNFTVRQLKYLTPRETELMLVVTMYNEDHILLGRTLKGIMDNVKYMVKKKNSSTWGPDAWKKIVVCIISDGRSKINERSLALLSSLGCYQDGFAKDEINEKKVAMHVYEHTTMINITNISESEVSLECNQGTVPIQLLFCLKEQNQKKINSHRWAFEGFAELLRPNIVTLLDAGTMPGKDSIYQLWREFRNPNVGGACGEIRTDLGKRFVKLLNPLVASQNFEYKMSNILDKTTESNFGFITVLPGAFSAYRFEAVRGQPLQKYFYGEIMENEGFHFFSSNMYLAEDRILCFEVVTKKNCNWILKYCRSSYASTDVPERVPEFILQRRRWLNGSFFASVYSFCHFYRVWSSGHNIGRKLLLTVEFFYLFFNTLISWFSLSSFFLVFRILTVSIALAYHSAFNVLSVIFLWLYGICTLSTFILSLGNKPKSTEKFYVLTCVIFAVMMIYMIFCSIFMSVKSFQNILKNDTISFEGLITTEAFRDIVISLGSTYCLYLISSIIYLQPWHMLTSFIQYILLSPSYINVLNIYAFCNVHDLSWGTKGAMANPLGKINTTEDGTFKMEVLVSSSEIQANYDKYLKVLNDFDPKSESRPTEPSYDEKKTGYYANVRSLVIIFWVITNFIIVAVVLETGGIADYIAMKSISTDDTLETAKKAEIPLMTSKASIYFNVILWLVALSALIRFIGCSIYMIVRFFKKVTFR

`C[C@@H]([C@H](N)C(=O)N[C@H](C(=O)O)[C@H]1O[C@@H](n2ccc(=O)[nH]c2=O)[C@H](O)[C@@H]1O)[C@H](O)c1ccc(O)cn1` [nikkomycin Z]: the “inhibition of Chs1 relative to Chs2” value in assay [1] is recorded as “inhibit the activity of Chs1 to a much greater extent than Chs2”. In assay [2], the “activity against phytopathogenic fungi” value is reported as “weakly active”. Moreover, the “% Chs3 Activity” value was “˜80%” in assay [3] (1 μM inhibitor), “˜55%” in assay [3] (2.5 μM inhibitor) and “˜41%” in assay [3] (5 μM inhibitor). Also, the “chitin synthase isozyme affected” value in assay [3] (secondary screening, Chs1, Chs2, Chs3 assays) was “act preferentially on the Chs3 isozyme”. Also, the “growth inhibition of strain S288c” value in assay [4] is “no inhibition”.
